US20260325487A1 (BS BIOTECHNA SPOLKA AKCYJNA, priority 2023, published 2026)

Experiments:
A172 = experiment: SRB anti-proliferative assay, A172, molecular combination and nanoparticles, with combination index (Example III); type: cell-based; settings: Homo sapiens, A 172, 72 h, read-out: Zah. (inhibition of proliferation)
Procedure: (§1) Cells were thawed from ampoules stored in liquid nitrogen and cultured in petri dishes in the appropriate culture medium according to Table 16, in a humidified 5% CO2 atmosphere at 37° C. Cells were passaged twice weekly using EDTA-Trypsin solution, pH 8, as a separating agent. Counted cells with a viability of at least 90% as assessed with Trypan-Blue solution were used for anti-proliferation assays.
(§2) Twenty-four hours before the addition of the test compounds/combinations, cells were seeded into 384-well plates at 50 μL/well and a density of 10^3 cells/well, in the appropriate culture medium. […] Solutions of the compounds were diluted in the test medium—RPMI-1640 and Opti-MEM in a 1:1 ratio, and the medium was supplemented with 2 mM glutamine and 5% fetal bovine serum FBS.
(§3) After 72 h, colourimetric assessment of cell growth was performed by SRB. […] Unbound dye was removed by washing the plates (4×) in 1% (v/v) acetic acid, and protein-bound dye was extracted with 10 mM unbuffered Tris base and the optical density (A=540 nm) was determined in a BioTek Synergy H4 Hybrid computer microplate reader (BioTek Instruments USA). The entire washing/staining procedure was performed using a BioTek EL406 washing station (BioTek Instruments USA). The raw absorbance results were analysed in Microsoft Excel software using the formula:
(§4) [formula] • Where: • % Zahlnh-inhibition of proliferation • Am—absorbance of wells without cells (medium) • Ak—absorbance of control wells (cells treated with pure culture medium) • Ap—absorbance of wells treated with compounds
(§5) Each compound at the indicated concentrations was tested in triplicate in one experiment. Each experiment was repeated three times. Data analysis was supplemented with synergy assessment using CalcuSyn software. […] A CI value below 0.8 indicates synergism, 0.8-1.2 an additive effect, above 1.2 an antagonism.

SW1990 = experiment: SRB anti-proliferative assay, SW1990, with CalcuSyn combination index (Example 1); type: cell-based; settings: Homo sapiens, SW1990, 72 h, read-out: Zah. (inhibition of proliferation)
Procedure: (§6) Cells were thawed from ampoules stored in liquid nitrogen and cultured in petri dishes in appropriate culture medium according to Table 2, in a humidified 5% CO2 atmosphere at 37° C. Cells were passaged twice weekly using EDTA-Trypsin solution, pH 8. Counted cells with a viability of at least 90% as assessed with Trypan-Blue solution were used for anti-proliferative assays.
(§7) Twenty-four hours before the addition of the test compounds/combinations, cells were seeded into 384-well plates at 50 μL/well and a density of 10^3 cells/well, in the appropriate culture medium.
as §3, with “Solutions of the compounds were diluted in the test medium-RPMI-1640 and Opti-MEM in a 1:1 ratio, and the medium was supplemented with 2 mM glutamine and 5% fetal bovine serum FBS. After” for “After”
as §4, §5

NCI-H226 = experiment: SRB anti-proliferative assay, NCI-H226, with CalcuSyn combination index (Example 1); type: cell-based; settings: Homo sapiens, NCI-H226, 72 h, read-out: Zah. (inhibition of proliferation)
Procedure: as §6, §7
as §3, with “Solutions of the compounds were diluted in the test medium-RPMI-1640 and Opti-MEM in a 1:1 ratio, and the medium was supplemented with 2 mM glutamine and 5% fetal bovine serum FBS. After” for “After”
as §4, §5

SK-MEL3 = experiment: SRB anti-proliferative assay, SK-MEL3, with CalcuSyn combination index (Example 1); type: cell-based; settings: Homo sapiens, SK-MEL3, 72 h, read-out: Zah. (inhibition of proliferation)
Procedure: as §6, §7
as §3, with “Solutions of the compounds were diluted in the test medium-RPMI-1640 and Opti-MEM in a 1:1 ratio, and the medium was supplemented with 2 mM glutamine and 5% fetal bovine serum FBS. After” for “After”
as §4, §5

8 cell lines = experiment: SRB anti-proliferative assay, summary over the panel of 8 cell lines (Example III); type: cell-based, human; settings: CI analysis not possible
Procedure: as §1, §2
Unbound dye was removed by washing the plates (4×) in 1% (v/v) acetic acid, and protein-bound dye was extracted with 10 mM unbuffered Tris base and the optical density (A=540 nm) was determined in a BioTek Synergy H4 Hybrid computer microplate reader (BioTek Instruments USA). […] The raw absorbance results were analysed in Microsoft Excel software using the formula:
[formula] • Where: • % Zahlnh-inhibition of proliferation • Am—absorbance of wells without cells (medium) • Ak—absorbance of control wells (cells treated with pure culture medium) • Ap—absorbance of wells treated with compounds […]

C=CCNC1=C2C[C@@H](C)C[C@H](OC)[C@H](O)[C@@H](C)/C=C(\C)[C@H](OC(N)=O)[C@@H](OC)/C=C\C=C(/C)C(=O)NC(=CC1=O)C2=O [17AAG, 17-AAG (tanespimycin)]
inhibition at 0.0003163 µM (A172): 6%
inhibition at 0.001 µM (A172): 15.7%
inhibition at 0.0032 µM (A172): 4.7%
inhibition at 0.01 µM (A172): 7.8%
inhibition at 0.0316 µM (A172): 20.1%
inhibition at 0.1 µM (A172): 37.4%
inhibition at 0.3163 µM (A172): 64.6%
inhibition at 1 µM (A172): 81.1%
inhibition at 0.0031 µM (SW1990): -0.2%
inhibition at 0.01 µM (SW1990): 5.7%
inhibition at 0.0314 µM (SW1990): 40.7%
inhibition at 0.1 µM (SW1990): 81.7%
inhibition at 0.3155 µM (SW1990): 90.6%
inhibition at 1 µM (SW1990): 92.9%
inhibition at 3.1546 µM (SW1990): 93.5%
inhibition at 10 µM (SW1990): 92.6%
inhibition at 0.0031 µM (NCI-H226): 19.3%
inhibition at 0.01 µM (NCI-H226): 27.3%
inhibition at 0.03 µM (NCI-H226): 32%
inhibition at 0.1 µM (NCI-H226): 43.8%
inhibition at 0.3124 µM (NCI-H226): 54.8%
inhibition at 1 µM (NCI-H226): 60.4%
inhibition at 3.1392 µM (NCI-H226): 71.9%
inhibition at 10 µM (NCI-H226): 72.6%
inhibition at 0.0031 µM (SK-MEL3): 1.1%
inhibition at 0.01 µM (SK-MEL3): 14%
inhibition at 0.0314 µM (SK-MEL3): 40.3%
inhibition at 0.1 µM (SK-MEL3): 48.5%
inhibition at 0.3155 µM (SK-MEL3): 58.1%
inhibition at 1 µM (SK-MEL3): 58.5%
inhibition at 3.1546 µM (SK-MEL3): 60.7%
inhibition at 10 µM (SK-MEL3): 76.6%
17-AAG activity (8 cell lines): low
